# Source: PMC7053198 (Theranostics, 2020)
# Assays:
# [1] = system: A375Ppuro cells; assay type: cell-based, human; details: 30 min at 4°C
# [2] = system: A375Pβ6 xenografts; details: mouse, in vivo, ip
# [3] = system: Panc0403/PS1 tumor xenografts; assay type: in vivo, mouse; details: n=4
# [4] = system: Panc1 cell line; assay type: cell-based; details: after 30 min
# [5] = mouse, in vivo, ip
# [6] = system: Panc0403 cells
# [7] = in vivo, ip
# [8] = system: αvβ6-positive versus αvβ6-negative cell lines; assay type: cell-based
# [9] = system: Capan-1 cells; assay type: cell-based, human
# [10] = system: Capan-1 cells
# [11] = system: A375Pβ6 cells
# [12] = system: Panc1 cells
# [13] = system: PANC354, PANC253 and PANC215 PDX PDAC cells; assay type: cell-based, human
# [14] = system: A375Ppuro xenografts; assay type: in vivo, mouse; details: after 21 days
# [15] = system: Panc0403/PS1 xenografts; assay type: in vivo, mouse; details: n=4
# [16] = in vivo; details: female, CD1 Nu/Nu, mouse, ip, 20 ug/kg
# [17] = system: Capan-1 PDAC xenografts; details: mouse, in vivo, ip
# [18] = system: A375Ppuro cells
# [19] = system: Colo357 cells
# [20] = system: Capan-1 tumor xenografts; assay type: in vivo, mouse; details: n=3
# [21] = system: A375Pβ6 cells; assay type: cell-based, human; details: 30 min at 4°C
smiles,measurement,setting,value
COc1cc2c(cc1OCCCCCOc1cc3c(cc1OC)C(=O)N1C=C(C)C[C@H]1[C@H](O)N3C(=O)OCc1ccc(NC(=O)[C@H](C)NC(=O)[C@@H](NC(=O)CCOCCOCCOCCOCCOCCOCCOCCOCCNC(=O)CCN3C(=O)CC(SC[C@H](NC(=O)[C@@H](NC(=O)[C@H](CCCNC(=N)N)NC(=O)[C@H](C)NC(=O)[C@@H](NC(=O)[C@H](CCCCN)NC(=O)[C@H](CCC(N)=O)NC(=O)[C@H](C)NC(=O)[C@H](CC(C)C)NC(=O)[C@@H](NC(=O)[C@H](CCC(N)=O)NC(=O)[C@H](CC(C)C)NC(=O)[C@H](CC(=O)O)NC(=O)CNC(=O)[C@H](CCCNC(=N)N)NC(=O)[C@H](CC(C)C)NC(=O)[C@H](CC(N)=O)NC(=O)[C@@H]4CCCN4C(=O)[C@@H](NC(=O)[C@H](C)NC(=O)[C@H](CC(N)=O)NC(=O)CCCC[C@@H]4SC[C@@H]5NC(=O)N[C@@H]54)C(C)C)C(C)C)C(C)C)[C@@H](C)O)C(=O)O)C3=O)C(C)C)cc1)N=C[C@@H]1CC(C)=CN1C2=O (stereo partly drawn) [SG3299],binding to A375Ppuro cells (MFI),[1],failed to bind
same,reduced growth more than SG3511,[2],2.3 fold
same,reduction of tumor growth compared with PBS treatment,[2],79±7%
same,increase in DNA damage (γH2AX) compared with PBS,[3],5.5 fold
same,increase in DNA damage (γH2AX) compared with SG3511,[3],2.9 fold
same,reduction of epithelial cell number (CK) compared with PBS,[3],44.2±18.1%
same,reduction of epithelial cell number (CK) compared with SG3511,[3],41.2±19.1%
same,reduction of epithelial cell number (E-cadherin) compared with PBS,[3],46±11%
same,reduction of epithelial cell number (E-cadherin) compared with SG3511,[3],32.1±34.6%
same,reduction of proliferation (Ki67) compared with PBS,[3],60±13.1%
same,reduction of proliferation (Ki67) compared with SG3511,[3],54.8±13.8%
same,reduction of β6 expression compared to PBS,[3],73.4±11%
same,reduction of β6 expression compared to SG3511,[3],61.1±16.1%
same,levels of internalised conjugate in αvβ6-negative Panc1,[4],no significant difference in the levels of internalised SG3299 or SG3511
same,detection in urine,[5],No SG3299 was detected in the urine
same,PDC αvβ6 Specificity Ratio,[6],13.22
same,IC50,[6]; 72 h,3.44 ± 3.29 nM
same,"adverse effects (mouse weight, behaviour, gross histology of lung, intestine and stomach)",[7],no gross adverse effects
same,higher toxicity at equal dose than the non-targeted PDC SG3511,[8],up to 15 fold
same,more toxic for αvβ6-expressing versus αvβ6-negative PDAC cell lines,[8],up to 78 fold
same,binding and internalisation in Capan-1 cells,[9],strong binding and entry into the cytoplasm
same,PDC αvβ6 Specificity Ratio,[10],2.80
same,IC50,[10]; 72 h,4.19 ± 3.76 nM
same,PDC αvβ6 Specificity Ratio,[11],15.02
same,more potent in A375Pβ6 cells than SG3511,[11],over 15 fold
same,more selective for A375Pβ6 cells than A375Ppuro cells,[11],5.7 fold
same,IC50,[11]; 72 h,5.37 ± 5.23 nM
same,PDC αvβ6 Specificity Ratio,[12],0.33
same,IC50,[12]; 72 h,176 ± 116 nM
same,reduction of the number of spheres formed compared with control-treated spheres,[13],72±27%
same,reduction in tumor size compared with vehicle (PBS),[14],34.8±4.6%
same,reduction of xenograft tumor growth compared with PBS treatment,[15],75.8±6%
same,reduction of xenograft tumor growth compared with SG3511 therapy,[15],60.4±9.8%
same,level at time molar at 2 min,[16],11 ± 4.3 nM
same,level at time molar at 5 min,[16],9.5 ± 4.3 nM
same,level at time molar at 0.25 h,[16],19.2 ± 4.9 nM
same,level at time molar at 1 h,[16],27.9 ± 4.2 nM
same,effect on tumor growth,[17],significant growth inhibition
same,mice with tumors eliminated,[17],4 out of 5
same,reduction of tumor growth compared to PBS,[17],97.7±2%
same,reduction of tumor growth compared to SG3511,[17],96.1±3.4%
same,PDC αvβ6 Specificity Ratio,[18],3.30
same,IC50,[18]; 72 h,30.6 ± 18.8 nM
same,PDC αvβ6 Specificity Ratio,[19],10.97
same,IC50,[19]; 72 h,2.24 ± 1.59 nM
same,increase in DNA damage (γH2AX) compared with PBS,[20],5.9 fold
same,increase in apoptosis (cleaved-caspase 3) from PBS,[20],5.8 fold
same,increased vimentin compared with PBS,[20],4.6 fold
same,increased α-sma expression from PBS,[20],1.9 fold
same,reduction in CK-positive epithelial cells compared with PBS,[20],79.2±11.2%
same,reduction in E-cadherin-positive epithelial cells compared with PBS,[20],85±8%
same,reduction in proliferation (Ki67 staining) compared with SG3511,[20],66.2±15.7%
same,reduction in proliferation (Ki67 staining) compared with control,[20],67.5±15%
same,binding to A375Pβ6 cells (MFI),[21],dose-dependent binding
